# Measurements: patent publication EP0818744A2, “Process for selecting candidate drug compounds” (Proteus Molecular Design Limited, priority 1996, dated 1998)
# Like-named read-outs stand apart in the source and are kept apart here. Non-standard residues stand in square brackets, D forms with d. Residues, ends and D or L forms follow the SMILES beside them. *: point of attachment. dPhe(4-Br) = N[C@H](Cc1ccc(Br)cc1)C(=O)O; Agmatine = N=C(N)NCCCCN*
# Target: thrombin (Homo sapiens, UniProt P00734)
# Assay: colorimetric microplate assay with synthetic peptide substrates, inhibition of thrombin
# Type: biochemical
# Experimental: The compounds were tested for inhibition of thrombin and trypsin using a colorimetric microplate assay with synthetic peptide substrates as described by Tapparelli, J. Biol. Chem. 268:4734 (1993). […]
# [1] = values not in parentheses (purified compounds, error less than 10%), '-' = not active, read-out: Ki Thrombin
Compound,Ki [1],"Ki (most active compound, read-out: Ki)"
NCCCCCNC(=O)[C@@H]1CCCN1C(=O)[C@H](N)Cc1ccccc1 [Compound A2B9],0.69 µM,–
NC(N)=NCCCCNC(=O)[C@@H]1CCCN1C(=O)[C@H](N)Cc1ccccc1 [Compound A2B1] (H-[dF]-Pro-Agmatine),0.12 µM,–
N=C(N)NCCCCNC(=O)[C@@H]1CCCN1C(=O)[C@H](N)Cc1ccc(Br)cc1 [Compound A3B1] (H-[dPhe(4-Br)]-Pro-Agmatine),–,0.041 µM
